Tests used:
[1] = system: glucocorticoid-induced muscle atrophy; assay: mouse glucocorticoid-induced atrophy model; type: in vivo; conditions: male mice, dexamethasone 1.2 mg/kg/d in drinking water, 0.1-1.0 mg/kg/d by osmotic minipump, nine days
Experimental: Legend: A—water only with no dexamethasone included in drinking water (non-atrophied control); B—water+dexamethasone (atrophied control); C—sauvagine (0.1 mg/kg/d)+dexamethasone; D—sauvagine (0.3 mg/kg/d)+dexamethasone; E—sauvagine (1.0 mg/kg/d)+dexamethasone; *—p≦0.05 compared to water; #—p≦0.05 compared to water+dexamethasone. Following the addition of the glucocorticoid, dexamethasone, to the drinking water (1.2 mg/kg/d), male mice were dosed with the above indicated agents or vehicle control (physiological saline) by continuous infusion using an Alzet osmotic minipump at 5 μl/hr until the end of the experimental period (without additional theophylline). The daily delivered dose of sauvagine is as indicated above. Minipump implantation was performed at the time of initiation of dexamethasone exposure. Nine days following the initiation of dosing sauvagine, the medial gastrocnemius and tibialis anterior muscles were removed and weighed to determine the degree of atrophy.
The glucocorticoid-induced atrophy model involves the administration of a glucocorticoid to the test animal, e.g., 1.2 mg/kg/day of dexamethasone in the drinking water. […] At various times following glucocorticoid administration, the extent of atrophy in the affected muscles is analyzed as described above for the denervation model.

[2] = system: denervation-induced atrophy of skeletal muscle; assay: adrenalectomized rat sciatic nerve denervation-induced atrophy model; type: in vivo; conditions: male adrenalectomized rats, 0.003-0.03 mg/kg s.c. twice daily + 30 mg/kg theophylline, nine days
Experimental: Legend: A—physiological saline (control); B—sauvagine (0.003 mg/kg)+theophylline; C—sauvagine (0.01 mg/kg)+theophylline; D—sauvagine (0.03 mg/kg)+theophylline; #—p≦0.05 compared to corresponding controls. Following denervation of the right sciatic nerve, male adrenalectomized rats (adrenalectomized rats were used to remove the skeletal muscle atrophy-inducing effects of activation of the HPA axis via agonisms of the CRF1R) were injected subcutaneously in the midscapular region twice daily, with either sauvagine or vehicle control (physiological saline) for nine days at the doses shown above. Sauvagine was co-administered with 30 mg/kg theophylline. On day nine, the tibialis anterior, extensor digitorum longus (EDL), soleus, medial gastrocnemius, and plantaris muscles were removed and weighed to determine the degree of atrophy.
The sciatic nerve denervation atrophy model involves anesthetizing the animal followed by the surgical removal of a short segment of either the right or left sciatic nerve, e.g., in mice the sciatic nerve is isolated approximately at the midpoint along the femur and a 3-5 mm segment is removed. This denervates the lower hind limb musculature resulting in atrophy of these muscles. Typically, innervation to the biceps femoris is left intact to provide satisfactory motion of the knee for virtually normal ambulation. Typically, in untreated animals, muscle mass of the denervated muscles is reduced 30-50% ten days following denervation. Following denervation, test compounds are administered e.g., by injection or by continuous infusion, e.g., via implantation of an osmotic minipump (e.g., Alzet, Palo Alto, Calif.), to determine their effect on denervation induced skeletal muscle atrophy. At various times following denervation, the animals are euthanized and lower leg muscles are dissected rapidly from both the denervated and nondenervated legs, the muscles, cleaned of tendons and connective tissue, are weighed. The extent of atrophy in the affected muscles is analyzed, for example, by measuring muscle mass, muscle cross-sectional area, myofiber cross-sectional area or contractile protein content.

In the case of `CC[C@H](C)[C@H](NC(=O)[C@@H](NC(=O)[C@H](CC(=O)O)NC(=O)[C@H](CC(C)C)NC(=O)[C@H](CC(C)C)NC(=O)[C@H](CC(C)C)NC(=O)[C@H](CCCNC(=N)N)NC(=O)[C@H](CC(N)=O)NC(=O)[C@H](CC(N)=O)NC(=O)[C@H](C)NC(=O)[C@H](C)NC(=O)[C@H](CCC(N)=O)NC(=O)[C@H](CCC(N)=O)NC(=O)[C@H](CCCCN)NC(=O)[C@H](CCC(=O)O)NC(=O)[C@H](CCCCN)NC(=O)[C@H](CCC(=O)O)NC(=O)[C@H](CCC(N)=O)NC(=O)[C@H](CCCCN)NC(=O)[C@H](CCC(=O)O)NC(=O)[C@@H](NC(=O)[C@H](CCC(=O)O)NC(=O)[C@@H](NC(=O)[C@H](CCSC)NC(=O)[C@H](CCCCN)NC(=O)[C@H](CCCNC(=N)N)NC(=O)[C@H](CC(C)C)NC(=O)[C@H](CC(C)C)NC(=O)[C@H](CCC(=O)O)NC(=O)[C@H](CC(C)C)NC(=O)[C@H](CO)NC(=O)[C@H](CC(C)C)NC(=O)[C@H](CC(=O)O)NC(=O)[C@@H](NC(=O)[C@H](CO)NC(=O)[C@@H](NC(=O)[C@@H]1CCCN1C(=O)[C@@H]1CCCN1C(=O)CNC(=O)[C@@H]1CCC(=O)N1)[C@@H](C)CC)[C@@H](C)CC)[C@@H](C)CC)[C@@H](C)CC)[C@@H](C)O)C(N)=O` [sauvagine], the “glucocorticoid-induced atrophy of the tibialis anterior muscle (muscle weight)” value ([1]; FIG. 3A) is reported as “inhibits glucocorticoid-induced muscle atrophy”, the “glucocorticoid-induced atrophy of the medial gastrocnemius muscle (muscle weight)” value ([1]; FIG. 3B) is reported as “inhibits glucocorticoid-induced muscle atrophy” and the “denervation-induced atrophy of the tibialis anterior muscle (muscle weight)” value ([2]; FIG. 7A) is reported as “inhibits denervation-induced atrophy”. The “denervation-induced atrophy of the EDL muscle (muscle weight)” value ([2]; FIG. 7B) was “inhibits denervation-induced atrophy”, the “hypertrophy of the non-denervated EDL muscle” value ([2]; FIG. 7B) was “statistically significant hypertrophy” and the “denervation-induced atrophy of the soleus muscle (muscle weight)” value ([2]; FIG. 7C) was “inhibits denervation-induced atrophy”. The “denervation-induced atrophy of the medial gastrocnemius muscle (muscle weight)” value ([2]; FIG. 7D) was “inhibits denervation-induced atrophy” and the “denervation-induced atrophy of the plantaris muscle (muscle weight)” value ([2]; FIG. 7E) was “inhibits denervation-induced atrophy”.

From patent publication US7572768B2, “Methods for identifying compounds for regulating muscle mass or function using corticotropin releasing factor receptors” (priority 2001, dated 2009)
